Laboratory results taken from ChEMBL document CHEMBL3390848, “Affinity selection and sequence-activity relationships of HIV-1 membrane fusion inhibitors directed at the drug-resistant variants” (Medchemcomm, 2010).
pEC50: −log10 of the molar value. Residues, ends and D or L forms follow the SMILES beside them.

Legend:
[1] = test system: Human immunodeficiency virus 1; experiment: Binding affinity to HIV1 His-tagged N-terminal heptad repeat of envelope glycoprotein gp41 assessed as recovery of N36-drug complex at 0.6 uM after 2 hrs by LC-MS analysis
[2] = test system: Human immunodeficiency virus 1; experiment: Binding affinity to HIV1 His-tagged N-terminal heptad repeat of envelope glycoprotein gp41 assessed as recovery of N36-drug complex at 1 uM after 2 hrs by LC-MS analysis
[3] = test system: Human immunodeficiency virus 1; experiment: Thermal stability of HIV1 envelope glycoprotein gp41 His-tagged N-terminal heptad repeat N36 N43D mutant-drug complex assessed as thermal unfolding transition state by measuring molar ellipticity at 4 to 90 degC by circular dichroic spectra analysis
[4] = test system: Human immunodeficiency virus 1; experiment: Binding affinity to HIV1 His-tagged N-terminal heptad repeat of envelope glycoprotein gp41 assessed as recovery of N36-drug complex at 6 uM after 2 hrs by LC-MS analysis
[5] = test system: Human immunodeficiency virus 1; experiment: Thermal stability of HIV1 envelope glycoprotein gp41 His-tagged N-terminal heptad repeat N36-drug complex assessed as thermal unfolding transition state by measuring molar ellipticity at 4 to 90 degC by circular dichroic spectra analysis
[6] = test system: Envelope glycoprotein gp160 (Human immunodeficiency virus 1), Q72502 [V38A]; experiment: Thermal stability of HIV1 envelope glycoprotein gp41 His-tagged N-terminal heptad repeat N36 V38A mutant-drug complex assessed as thermal unfolding transition state by measuring molar ellipticity at 4 to 90 degC by circular dichroic spectra analysis
[7] = test system: Human immunodeficiency virus 1; experiment: Binding affinity to HIV1 His-tagged N-terminal heptad repeat of envelope glycoprotein gp41 assessed as recovery of N36 N43D mutant-drug complex after 2 hrs by LC-MS analysis; design: concentration or dose not given beside the values
[8] = test system: Human immunodeficiency virus 1; experiment: Antiviral activity against HIV1 NL4-3 harboring gp41 D36G mutant infected in human HeLa cells expressing CD4-LTR-beta-gal assessed as inhibition of viral replication after 48 hrs by MAGI assay; type: functional, organism-based
[9] = test system: Envelope glycoprotein gp160 (Human immunodeficiency virus 1), Q72502 [V38A]; experiment: Binding affinity to HIV1 His-tagged N-terminal heptad repeat of envelope glycoprotein gp41 assessed as recovery of N36 V38A mutant-drug complex after 2 hrs by LC-MS analysis; design: concentration or dose not given beside the values
[10] = test system: Human immunodeficiency virus 1; experiment: Binding affinity to HIV1 His-tagged N-terminal heptad repeat of envelope glycoprotein gp41 assessed as recovery of N36-drug complex at 10 uM after 2 hrs by LC-MS analysis
[11] = test system: Human immunodeficiency virus 1; experiment: Binding affinity to HIV1 His-tagged N-terminal heptad repeat of envelope glycoprotein gp41 assessed as recovery of N54-drug complex after 2 hrs by LC-MS analysis; design: concentration or dose not given beside the values
[12] = test system: Human immunodeficiency virus 1; experiment: Thermal stability of HIV1 envelope glycoprotein gp41 His-tagged N-terminal heptad repeat N54-drug complex assessed as thermal unfolding transition state by measuring molar ellipticity at 4 to 90 degC by circular dichroic spectra analysis
[13] = test system: Human immunodeficiency virus 1; experiment: Thermal stability of HIV1 envelope glycoprotein gp41 His-tagged N-terminal heptad repeat N54 N43D mutant-drug complex assessed as thermal unfolding transition state by measuring molar ellipticity at 4 to 90 degC by circular dichroic spectra analysis
[14] = test system: Envelope glycoprotein gp160 (Human immunodeficiency virus 1), Q72502 [V38A]; experiment: Thermal stability of HIV1 envelope glycoprotein gp41 His-tagged N-terminal heptad repeat N54 V38A mutant-drug complex assessed as thermal unfolding transition state by measuring molar ellipticity at 4 to 90 degC by circular dichroic spectra analysis
[15] = test system: Envelope glycoprotein gp160 (Human immunodeficiency virus 1), Q72502 [V38A]; experiment: Binding affinity to HIV1 His-tagged N-terminal heptad repeat of envelope glycoprotein gp41 assessed as recovery of N54 V38A mutant-drug complex after 2 hrs by LC-MS analysis; design: concentration or dose not given beside the values
[16] = test system: Human immunodeficiency virus 1; experiment: Binding affinity to HIV1 His-tagged N-terminal heptad repeat of envelope glycoprotein gp41 assessed as recovery of N54 N43D mutant-drug complex after 2 hrs by LC-MS analysis; design: concentration or dose not given beside the values

Structure (SMILES)	Activity [1] [%]	Activity [2] [%]	Tm [3] [°C]	Activity [4] [%]	Tm [5] [°C]	Tm [6] [°C]	Activity [7] [%]	pEC50 [8]	Activity [9] [%]	Activity [10] [%]	Activity [11] [%]	Tm [12] [°C]	Tm [13] [°C]	Tm [14] [°C]	Activity [15] [%]	Activity [16] [%]
CC[C@H](C)[C@H](NC(=O)[C@H](CCCCN)NC(=O)[C@H](CCCCN)NC(=O)[C@H](CC(=O)O)NC(=O)[C@H](Cc1c[nH]c2ccccc12)NC(=O)[C@H](CCC(=O)O)NC(=O)[C@H](CCC(=O)O)NC(=O)[C@H](Cc1c[nH]c2ccccc12)NC(C)=O)C(=O)N[C@@H](CCC(=O)O)C(=O)N[C@@H](CCC(=O)O)C(=O)N[C@@H](Cc1ccc(O)cc1)C(=O)N[C@H](C(=O)N[C@@H](CCCCN)C(=O)N[C@@H](CCCCN)C(=O)N[C@H](C(=O)N[C@@H](CCC(=O)O)C(=O)N[C@@H](CCC(=O)O)C(=O)N[C@@H](CC(C)C)C(=O)N[C@H](C(=O)N[C@@H](CCCCN)C(=O)N[C@@H](CCCCN)C(=O)N1CCC[C@H]1C(=O)N[C@@H](CCC(=O)O)C(=O)N[C@@H](CCC(=O)O)C(=O)N[C@@H](CCC(N)=O)C(=O)N[C@@H](CCC(N)=O)C(=O)N[C@@H](CCCCN)C(=O)N[C@@H](CCCCN)C(=O)N[C@@H](CC(N)=O)C(=O)N[C@@H](CCC(=O)O)C(=O)N[C@@H](CCC(=O)O)C(=O)N[C@@H](CCC(=O)O)C(=O)N[C@@H](CC(C)C)C(=O)N[C@@H](CCCCN)C(=O)N[C@@H](CCCCN)C(N)=O)[C@@H](C)CC)[C@@H](C)CC)[C@@H](C)O (Ac-WEEWDKKIEEYTKKIEELIKKPEEQQKKNEEELKK-NH2)	4.5	0.1	55.6	0.2	56.1	56.3	0.3	7.46	0.4	0.4	–	–	–	–	–	–
CC[C@H](C)[C@H](NC(=O)[C@H](CC(C)C)NC(=O)[C@H](CCC(=O)O)NC(=O)[C@H](CCC(=O)O)NC(=O)[C@@H](NC(=O)[C@H](CC(C)C)NC(=O)[C@H](CO)NC(=O)[C@@H](NC(=O)[C@H](Cc1ccc(O)cc1)NC(C)=O)[C@@H](C)O)[C@@H](C)CC)C(=O)N[C@@H](CCCCN)C(=O)N[C@@H](CCCCN)C(=O)N[C@@H](C)C(=O)N[C@@H](CCC(=O)O)C(=O)N[C@@H](CCC(=O)O)C(=O)N[C@@H](CCC(N)=O)C(=O)N[C@@H](CCC(N)=O)C(=O)N[C@@H](CCCCN)C(=O)N[C@@H](CCCCN)C(=O)N[C@@H](CC(N)=O)C(=O)N[C@@H](CCC(=O)O)C(=O)N[C@@H](CCC(=O)O)C(=O)N[C@@H](CCC(=O)O)C(=O)N[C@@H](CC(C)C)C(=O)N[C@@H](CCCCN)C(=O)N[C@@H](CCCCN)C(=O)N[C@@H](CC(C)C)C(=O)N[C@@H](CCC(=O)O)C(=O)N[C@@H](CCC(=O)O)C(=O)N[C@@H](Cc1c[nH]c2ccccc12)C(=O)N[C@@H](C)C(=O)N[C@@H](CCCCN)C(=O)N[C@@H](CCCCN)C(=O)N[C@@H](Cc1c[nH]c2ccccc12)C(=O)N[C@@H](CC(N)=O)C(=O)N[C@@H](Cc1c[nH]c2ccccc12)C(=O)N[C@@H](Cc1ccccc1)C(N)=O (Ac-YTSLIEELIKKAEEQQKKNEEELKKLEEWAKKWNWF-NH2)	–	–	–	–	–	–	–	9.52	–	–	10	80.1	71.9	64.6	10	10.2
CC[C@H](C)[C@H](NC(=O)[C@H](CC(C)C)NC(=O)[C@H](CCC(=O)O)NC(=O)[C@H](CCC(=O)O)NC(=O)[C@@H](NC(=O)[C@H](CC(C)C)NC(=O)[C@H](CO)NC(=O)[C@@H](NC(=O)[C@H](Cc1ccc(O)cc1)NC(C)=O)[C@@H](C)O)[C@@H](C)CC)C(=O)N[C@@H](CCCCN)C(=O)N[C@@H](CCCCN)C(=O)N[C@@H](CO)C(=O)N[C@@H](CCC(=O)O)C(=O)N[C@@H](CCC(=O)O)C(=O)N[C@@H](CCC(N)=O)C(=O)N[C@@H](CCC(N)=O)C(=O)N[C@@H](CCCCN)C(=O)N[C@@H](CCCCN)C(=O)N[C@@H](CC(N)=O)C(=O)N[C@@H](CCC(=O)O)C(=O)N[C@@H](CCC(=O)O)C(=O)N[C@@H](CCC(=O)O)C(=O)N[C@@H](CC(C)C)C(=O)N[C@@H](CCCCN)C(=O)N[C@@H](CCCCN)C(=O)N[C@@H](CC(C)C)C(=O)N[C@@H](CCC(=O)O)C(=O)N[C@@H](CCC(=O)O)C(=O)N[C@@H](Cc1c[nH]c2ccccc12)C(=O)N[C@@H](C)C(=O)N[C@@H](CCCCN)C(=O)N[C@@H](CCCCN)C(=O)N[C@@H](Cc1c[nH]c2ccccc12)C(=O)N[C@@H](CC(N)=O)C(=O)N[C@@H](Cc1c[nH]c2ccccc12)C(=O)N[C@@H](Cc1ccccc1)C(N)=O (Ac-YTSLIEELIKKSEEQQKKNEEELKKLEEWAKKWNWF-NH2)	–	–	–	–	–	–	–	8.96	–	–	8.2	78.8	65.3	60	9.3	7.4
CC[C@H](C)[C@H](NC(=O)[C@H](CC(C)C)NC(=O)[C@H](CCC(=O)O)NC(=O)[C@H](CCC(=O)O)NC(=O)[C@@H](NC(=O)[C@H](CC(C)C)NC(=O)[C@H](CO)NC(=O)[C@@H](NC(=O)[C@H](Cc1ccc(O)cc1)NC(C)=O)[C@@H](C)O)[C@@H](C)CC)C(=O)N[C@@H](CCCCN)C(=O)N[C@@H](CCCCN)C(=O)N[C@@H](CC(C)C)C(=O)N[C@@H](CCC(=O)O)C(=O)N[C@@H](CCC(=O)O)C(=O)N[C@@H](CCC(N)=O)C(=O)N[C@@H](CCC(N)=O)C(=O)N[C@@H](CCCCN)C(=O)N[C@@H](CCCCN)C(=O)N[C@@H](CC(N)=O)C(=O)N[C@@H](CCC(=O)O)C(=O)N[C@@H](CCC(=O)O)C(=O)N[C@@H](CCC(=O)O)C(=O)N[C@@H](CC(C)C)C(=O)N[C@@H](CCCCN)C(=O)N[C@@H](CCCCN)C(=O)N[C@@H](CC(C)C)C(=O)N[C@@H](CCC(=O)O)C(=O)N[C@@H](CCC(=O)O)C(=O)N[C@@H](Cc1c[nH]c2ccccc12)C(=O)N[C@@H](C)C(=O)N[C@@H](CCCCN)C(=O)N[C@@H](CCCCN)C(=O)N[C@@H](Cc1c[nH]c2ccccc12)C(=O)N[C@@H](CC(N)=O)C(=O)N[C@@H](Cc1c[nH]c2ccccc12)C(=O)N[C@@H](Cc1ccccc1)C(N)=O (Ac-YTSLIEELIKKLEEQQKKNEEELKKLEEWAKKWNWF-NH2)	–	–	–	–	–	–	–	9.40	–	–	10.4	77.6	74	57.5	10.1	10.8
CC[C@H](C)[C@H](NC(=O)[C@H](CC(C)C)NC(=O)[C@H](CCC(=O)O)NC(=O)[C@H](CCC(=O)O)NC(=O)[C@@H](NC(=O)[C@H](CC(C)C)NC(=O)[C@H](CO)NC(=O)[C@@H](NC(=O)[C@H](Cc1ccc(O)cc1)NC(C)=O)[C@@H](C)O)[C@@H](C)CC)C(=O)N[C@@H](CCCCN)C(=O)N[C@@H](CCCCN)C(=O)N[C@H](C(=O)N[C@@H](CCC(=O)O)C(=O)N[C@@H](CCC(=O)O)C(=O)N[C@@H](CCC(N)=O)C(=O)N[C@@H](CCC(N)=O)C(=O)N[C@@H](CCCCN)C(=O)N[C@@H](CCCCN)C(=O)N[C@@H](CC(N)=O)C(=O)N[C@@H](CCC(=O)O)C(=O)N[C@@H](CCC(=O)O)C(=O)N[C@@H](CCC(=O)O)C(=O)N[C@@H](CC(C)C)C(=O)N[C@@H](CCCCN)C(=O)N[C@@H](CCCCN)C(=O)N[C@@H](CC(C)C)C(=O)N[C@@H](CCC(=O)O)C(=O)N[C@@H](CCC(=O)O)C(=O)N[C@@H](Cc1c[nH]c2ccccc12)C(=O)N[C@@H](C)C(=O)N[C@@H](CCCCN)C(=O)N[C@@H](CCCCN)C(=O)N[C@@H](Cc1c[nH]c2ccccc12)C(=O)N[C@@H](CC(N)=O)C(=O)N[C@@H](Cc1c[nH]c2ccccc12)C(=O)N[C@@H](Cc1ccccc1)C(N)=O)[C@@H](C)O (Ac-YTSLIEELIKKTEEQQKKNEEELKKLEEWAKKWNWF-NH2)	–	–	–	–	–	–	–	9.40	–	–	10	75.9	62.4	57.8	8.1	6.1
